Measurements: ChEMBL document CHEMBL1201862, “PubChem BioAssay data set” (2004)
Active and inactive are the calls of the source.

Key:
[1] = molecular target: Melanin-concentrating hormone receptor 1 (Homo sapiens, UniProt Q99705); test: Late-stage fluorescence-based counterscreen for antagonists of the G-protein coupled receptor 7 (GPR7): cell-based dose response assay to identify antagonists of the melanin-concentrating hormone receptor 1 (MCHR1) Set 5.; type: functional
[2] = molecular target: T1, Neuropeptides B/W receptor type 1 (Homo sapiens, UniProt P48145); test: human NPBW1 receptor blockade, IC50 – cell-based, fluorescence, dose response, set 5, late-stage follow-up (AID 588566); type: functional
T1 sequence (P48145 whole entry): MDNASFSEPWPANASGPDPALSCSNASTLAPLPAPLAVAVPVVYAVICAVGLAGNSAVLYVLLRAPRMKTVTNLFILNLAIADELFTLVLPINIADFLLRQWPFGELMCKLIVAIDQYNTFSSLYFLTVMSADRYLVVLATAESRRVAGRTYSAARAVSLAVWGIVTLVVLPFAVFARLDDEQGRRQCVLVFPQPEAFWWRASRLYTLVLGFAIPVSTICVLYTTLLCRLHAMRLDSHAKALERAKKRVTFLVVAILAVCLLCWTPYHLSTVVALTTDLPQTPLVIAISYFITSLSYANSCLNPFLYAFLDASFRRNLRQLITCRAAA

[3] = molecular target: Protein disulfide-isomerase (Homo sapiens, UniProt P07237); test: inhibition of PDI-driven insulin aggregation – biochemical, turbidity, absorbance, cherry-picked samples, dose response (AID 602350); type: functional
Sequence of Protein disulfide-isomerase (P07237 whole entry): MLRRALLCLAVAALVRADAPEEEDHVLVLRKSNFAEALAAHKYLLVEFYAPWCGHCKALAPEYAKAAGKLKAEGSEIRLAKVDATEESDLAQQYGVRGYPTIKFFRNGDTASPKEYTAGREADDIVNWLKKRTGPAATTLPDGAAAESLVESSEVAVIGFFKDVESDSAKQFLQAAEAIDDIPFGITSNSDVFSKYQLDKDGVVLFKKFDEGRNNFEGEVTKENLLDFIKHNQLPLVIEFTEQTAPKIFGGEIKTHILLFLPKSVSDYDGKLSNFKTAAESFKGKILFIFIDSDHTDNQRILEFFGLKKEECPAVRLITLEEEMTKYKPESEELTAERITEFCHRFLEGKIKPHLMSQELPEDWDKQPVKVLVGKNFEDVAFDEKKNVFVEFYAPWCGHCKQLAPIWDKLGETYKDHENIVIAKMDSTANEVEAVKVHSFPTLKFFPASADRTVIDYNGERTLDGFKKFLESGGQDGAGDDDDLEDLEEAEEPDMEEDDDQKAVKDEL

[4] = molecular target: T2, Sentrin-specific protease 6 (Homo sapiens, UniProt Q9GZR1); type: functional;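 further: Luminescence-based dose-response confirmatory assay of SENP6 inhibition, following up an ultra-high-throughput screen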
T2 sequence (Q9GZR1 whole entry): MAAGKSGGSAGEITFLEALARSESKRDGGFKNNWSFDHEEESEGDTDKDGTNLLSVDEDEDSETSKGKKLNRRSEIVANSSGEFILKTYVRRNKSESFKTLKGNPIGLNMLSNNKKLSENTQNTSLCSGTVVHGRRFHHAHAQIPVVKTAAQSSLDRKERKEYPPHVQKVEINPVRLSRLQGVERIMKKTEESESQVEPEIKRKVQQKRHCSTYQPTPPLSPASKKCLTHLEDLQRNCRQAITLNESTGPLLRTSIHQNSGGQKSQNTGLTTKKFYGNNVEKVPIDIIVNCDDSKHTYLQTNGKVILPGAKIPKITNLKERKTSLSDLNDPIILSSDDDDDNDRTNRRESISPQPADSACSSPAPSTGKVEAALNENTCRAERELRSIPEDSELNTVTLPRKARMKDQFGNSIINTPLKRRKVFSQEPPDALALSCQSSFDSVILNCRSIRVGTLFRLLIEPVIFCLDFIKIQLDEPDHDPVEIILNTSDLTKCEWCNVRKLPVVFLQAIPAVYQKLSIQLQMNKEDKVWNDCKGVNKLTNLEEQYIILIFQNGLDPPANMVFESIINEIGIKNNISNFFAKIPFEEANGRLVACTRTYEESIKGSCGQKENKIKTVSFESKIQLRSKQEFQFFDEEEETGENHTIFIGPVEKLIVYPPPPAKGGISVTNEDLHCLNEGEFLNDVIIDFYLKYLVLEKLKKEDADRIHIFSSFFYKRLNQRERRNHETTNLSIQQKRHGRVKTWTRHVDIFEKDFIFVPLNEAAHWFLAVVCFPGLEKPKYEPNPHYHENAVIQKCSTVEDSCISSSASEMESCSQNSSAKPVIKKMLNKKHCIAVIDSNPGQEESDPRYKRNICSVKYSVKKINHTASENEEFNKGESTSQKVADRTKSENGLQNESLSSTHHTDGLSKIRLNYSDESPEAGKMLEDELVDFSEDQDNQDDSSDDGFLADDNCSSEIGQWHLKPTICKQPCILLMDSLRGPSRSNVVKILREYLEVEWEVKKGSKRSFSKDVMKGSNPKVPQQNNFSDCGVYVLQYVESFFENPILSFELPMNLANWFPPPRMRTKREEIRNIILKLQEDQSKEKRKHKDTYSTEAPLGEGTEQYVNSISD

[5] = molecular target: T3, Caspase-3 (Homo sapiens, UniProt P42574); type: functional;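 further: Dose-response selectivity test against caspase-3 for candidate inhibitors of sentrin-specific proteases (SENPs)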
T3 sequence (P42574 whole entry): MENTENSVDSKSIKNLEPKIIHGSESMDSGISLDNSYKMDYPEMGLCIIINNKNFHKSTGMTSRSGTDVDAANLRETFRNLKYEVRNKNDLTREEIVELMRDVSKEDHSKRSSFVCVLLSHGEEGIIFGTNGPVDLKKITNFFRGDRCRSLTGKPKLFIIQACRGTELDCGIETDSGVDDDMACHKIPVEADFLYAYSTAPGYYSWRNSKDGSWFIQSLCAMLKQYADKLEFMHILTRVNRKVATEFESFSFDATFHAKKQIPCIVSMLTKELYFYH

[6] = molecular target: T4, Sentrin-specific protease 8 (Homo sapiens, UniProt Q96LD8); type: functional;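 further: luminescence read-out of SENP8 inhibition, dose-response confirmation following an ultra-high-throughput screen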
T4 sequence (Q96LD8 whole entry): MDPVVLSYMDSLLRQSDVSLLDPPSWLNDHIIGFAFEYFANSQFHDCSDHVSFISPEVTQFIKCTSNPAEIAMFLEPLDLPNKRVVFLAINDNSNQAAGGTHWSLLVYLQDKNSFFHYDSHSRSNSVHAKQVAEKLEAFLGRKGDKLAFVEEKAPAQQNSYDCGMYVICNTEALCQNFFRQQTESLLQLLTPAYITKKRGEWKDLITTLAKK

[7] = molecular target: T5, Sentrin-specific protease 7 (Homo sapiens, UniProt Q9BQF6); type: functional;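 further: Luminescence-based dose-response confirmation of ultra-high-throughput screening hits, measuring inhibition of SENP7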
T5 sequence (Q9BQF6 whole entry): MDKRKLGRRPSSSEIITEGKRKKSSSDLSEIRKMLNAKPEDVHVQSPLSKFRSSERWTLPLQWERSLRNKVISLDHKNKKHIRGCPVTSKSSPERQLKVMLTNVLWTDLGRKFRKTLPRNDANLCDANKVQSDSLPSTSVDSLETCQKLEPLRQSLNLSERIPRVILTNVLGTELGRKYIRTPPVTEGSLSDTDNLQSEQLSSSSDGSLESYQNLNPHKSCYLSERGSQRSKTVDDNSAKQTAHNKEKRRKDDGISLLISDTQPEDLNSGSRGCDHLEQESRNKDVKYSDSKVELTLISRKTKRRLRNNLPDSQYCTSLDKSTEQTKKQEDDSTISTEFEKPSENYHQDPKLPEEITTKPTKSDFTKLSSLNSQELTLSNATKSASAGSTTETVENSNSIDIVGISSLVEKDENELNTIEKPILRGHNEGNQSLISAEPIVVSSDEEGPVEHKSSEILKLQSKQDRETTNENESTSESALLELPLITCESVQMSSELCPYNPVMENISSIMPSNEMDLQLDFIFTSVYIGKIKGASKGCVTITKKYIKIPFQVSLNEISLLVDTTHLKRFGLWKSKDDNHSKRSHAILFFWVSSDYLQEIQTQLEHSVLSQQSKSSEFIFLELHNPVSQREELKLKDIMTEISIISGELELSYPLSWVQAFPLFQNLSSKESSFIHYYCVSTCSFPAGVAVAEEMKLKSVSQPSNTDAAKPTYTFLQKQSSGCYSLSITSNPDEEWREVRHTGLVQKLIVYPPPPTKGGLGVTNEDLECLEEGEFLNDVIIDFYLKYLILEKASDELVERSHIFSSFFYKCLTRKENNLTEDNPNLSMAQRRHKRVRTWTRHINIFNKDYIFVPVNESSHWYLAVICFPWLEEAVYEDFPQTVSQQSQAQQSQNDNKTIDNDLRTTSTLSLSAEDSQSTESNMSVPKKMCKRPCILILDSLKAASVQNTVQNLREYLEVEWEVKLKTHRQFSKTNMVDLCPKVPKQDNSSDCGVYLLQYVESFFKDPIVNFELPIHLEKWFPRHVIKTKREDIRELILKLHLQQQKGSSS

[8] = molecular target: Phospholipase A2 (Homo sapiens, UniProt P04054); type: functional;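 further: confirmatory dose-response counterscreen on phospholipase A2, testing hits that came from an ultra-high-throughput screen for ATG4B inhibitors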
Sequence of Phospholipase A2 (P04054 whole entry): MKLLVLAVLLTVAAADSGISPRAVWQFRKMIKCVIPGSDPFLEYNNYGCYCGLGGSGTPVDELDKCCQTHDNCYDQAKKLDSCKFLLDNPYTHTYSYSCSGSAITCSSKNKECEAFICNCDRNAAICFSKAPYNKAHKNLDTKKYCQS

[9] = molecular target: Cysteine protease ATG4B (Homo sapiens, UniProt Q9Y4P1); type: functional;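 further: Fluorescence-based dose-response confirmation assay measuring inhibition of ATG4B activity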
Sequence of Cysteine protease ATG4B (Q9Y4P1 whole entry): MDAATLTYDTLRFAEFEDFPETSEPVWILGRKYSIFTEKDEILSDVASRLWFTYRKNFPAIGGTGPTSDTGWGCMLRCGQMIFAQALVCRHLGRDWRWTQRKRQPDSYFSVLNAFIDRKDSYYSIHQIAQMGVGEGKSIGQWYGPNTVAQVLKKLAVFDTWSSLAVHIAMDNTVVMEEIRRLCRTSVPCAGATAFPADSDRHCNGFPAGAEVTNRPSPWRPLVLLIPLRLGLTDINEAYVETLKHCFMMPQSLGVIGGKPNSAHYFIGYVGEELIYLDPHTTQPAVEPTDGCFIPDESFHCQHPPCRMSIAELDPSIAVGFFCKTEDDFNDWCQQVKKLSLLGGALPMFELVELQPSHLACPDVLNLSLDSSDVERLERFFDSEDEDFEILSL

[10] = molecular target: Beta Lactamase (Pseudomonas aeruginosa, UniProt Q932Y6); test: BLA reporter interference, concentration series – BLA reporter cells, FRET fluorescence, artefact control for TLR9-MyD88 binding inhibitor project, dose response (AID 588341); type: cell-based;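 further: cell based assay in CHO-K1 cells stably expressing beta-lactamase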
Sequence of Beta Lactamase (Q932Y6 whole entry, the tested form may be a part): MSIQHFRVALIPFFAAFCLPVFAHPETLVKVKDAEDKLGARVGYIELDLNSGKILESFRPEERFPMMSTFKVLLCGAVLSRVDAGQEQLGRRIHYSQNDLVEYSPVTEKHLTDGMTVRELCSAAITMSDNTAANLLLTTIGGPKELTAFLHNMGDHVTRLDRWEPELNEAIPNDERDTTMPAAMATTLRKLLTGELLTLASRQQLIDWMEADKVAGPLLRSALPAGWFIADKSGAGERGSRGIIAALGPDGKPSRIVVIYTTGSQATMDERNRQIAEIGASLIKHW

[11] = system: CHO; test: CHO cell viability loss, potency – luminescence, cytotoxicity control for TLR9-MyD88 binding inhibitor project, dose response (AID 588339); type: functional, cell-based, hamster; conditions: Cricetulus griseus;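 further: CHO cells stably coexpressing TLR9 and MyD88 fusions from primary screen; compound exposure lasted 48 hours before viability readout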
[12] = system: INS1; test: INS-1E survival protection against cytokine death – cell-based, luminescence, retest, dose response (AID 449756); type: functional; conditions: Rattus norvegicus;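 further: cell death triggered by IL-1 beta plus TNF-alpha plus IFN-gamma mixture; protective hits raise ATP signal compared with cytokine alone wells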
[13] = molecular target: Genome polyprotein (dengue virus type 2, UniProt P29990); test: flavivirus cap methylation enzyme inhibition – biochemical, confirmation dose response, primary screen (AID 588689); type: functional
Sequence of Genome polyprotein (P29990 2492-3391 limits assumed): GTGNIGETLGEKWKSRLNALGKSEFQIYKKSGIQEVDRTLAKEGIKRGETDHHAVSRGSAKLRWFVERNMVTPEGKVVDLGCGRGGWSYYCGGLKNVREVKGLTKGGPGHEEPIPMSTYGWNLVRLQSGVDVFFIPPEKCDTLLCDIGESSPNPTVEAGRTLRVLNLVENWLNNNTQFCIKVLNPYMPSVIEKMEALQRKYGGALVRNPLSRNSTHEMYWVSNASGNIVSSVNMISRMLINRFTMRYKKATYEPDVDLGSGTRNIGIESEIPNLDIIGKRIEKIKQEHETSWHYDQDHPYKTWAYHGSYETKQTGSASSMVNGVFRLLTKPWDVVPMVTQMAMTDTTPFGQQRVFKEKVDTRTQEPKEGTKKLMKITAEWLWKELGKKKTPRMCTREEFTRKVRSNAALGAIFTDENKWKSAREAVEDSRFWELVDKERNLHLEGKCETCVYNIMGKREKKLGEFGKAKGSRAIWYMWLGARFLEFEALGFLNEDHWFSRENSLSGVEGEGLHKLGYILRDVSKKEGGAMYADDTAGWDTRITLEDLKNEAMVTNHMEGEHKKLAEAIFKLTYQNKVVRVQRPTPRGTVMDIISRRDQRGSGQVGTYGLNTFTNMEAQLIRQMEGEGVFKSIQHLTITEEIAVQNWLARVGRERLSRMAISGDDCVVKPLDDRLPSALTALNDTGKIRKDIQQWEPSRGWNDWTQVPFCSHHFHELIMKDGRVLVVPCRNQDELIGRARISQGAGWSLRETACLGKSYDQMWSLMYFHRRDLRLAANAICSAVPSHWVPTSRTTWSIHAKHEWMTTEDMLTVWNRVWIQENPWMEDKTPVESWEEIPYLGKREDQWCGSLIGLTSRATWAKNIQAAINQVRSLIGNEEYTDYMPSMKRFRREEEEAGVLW

[14] = Luminescence Cell-Based Dose Retest to Confirm Inhibitors of Cancer Stem Cells. [Related pubchem assays (depositor defined):AID2717, AID2721]; type: functional; conditions: Homo sapiens
[15] = microbe, parasite or virus in culture; type: functional; conditions: Mycobacterium tuberculosis
[16] = Trypanosoma cruzi growth suppression in host cells – NIH3T3 host cells, beta-gal luminescence, confirmation (AID 2044); type: functional, cell-based;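 further: intracellular parasites grown in NIH/3T3 mouse fibroblasts as host cells; luminescent beta-galactosidase reporter signal from transgenic T. cruzi replicating inside host cells; inhibitors lower the luminescence signal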
[17] = molecular target: Heat shock protein HSP 90-alpha (Homo sapiens, UniProt P07900); type: functional, organism-based
[18] = system: Streptococcus; test: GAS UMAA2166 growth inhibition – luminescence, BacTiterGlo, counter-screen for streptokinase expression inhibitor project, dose response (AID 1915); type: functional, organism-based;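 further: potency for reduction of bacterial viability or growth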
[19] = NIH3T3 cell viability loss – ATP luminescence, mouse fibroblasts, counter-screen, dose response (AID 2010); type: functional, cell-based;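 further: cells exposed to compound for about 90 hours before reading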
[20] = system: Streptococcus sp. 'group A'; test: Streptococcus pyogenes SK(-)GAS viability under kanamycin – luminescence, BacTiterGlo, confirmation, counter-screen for streptokinase expression inhibitor project, dose response (AID 1900); type: functional, organism-based
[21] = molecular target: DNA dC->dU-editing enzyme APOBEC-3A (Homo sapiens, UniProt P31941); test: SAR analysis of small molecule inhibitors of APOBEC3A DNA Deaminase via a fluorescence-based single-stranded DNA deaminase assay.; type: functional; conditions: read-out: IC50_Mean
Sequence of DNA dC->dU-editing enzyme APOBEC-3A (P31941 whole entry): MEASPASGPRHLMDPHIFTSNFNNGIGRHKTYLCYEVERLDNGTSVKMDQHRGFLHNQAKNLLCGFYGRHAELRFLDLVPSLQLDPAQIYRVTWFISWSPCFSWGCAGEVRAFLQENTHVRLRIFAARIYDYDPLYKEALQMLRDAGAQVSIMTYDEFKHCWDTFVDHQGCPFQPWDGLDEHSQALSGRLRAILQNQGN

[22] = molecular target: T6, Short transient receptor potential channel 4 (Mus musculus, UniProt Q9QUQ5); test: calcium entry via TRPC4 opening agents – cell-based, HEK293 TRPC4/mu-opioid, Fluo-4 calcium, dose response (AID 434937); type: functional
T6 sequence (Q9QUQ5 whole entry): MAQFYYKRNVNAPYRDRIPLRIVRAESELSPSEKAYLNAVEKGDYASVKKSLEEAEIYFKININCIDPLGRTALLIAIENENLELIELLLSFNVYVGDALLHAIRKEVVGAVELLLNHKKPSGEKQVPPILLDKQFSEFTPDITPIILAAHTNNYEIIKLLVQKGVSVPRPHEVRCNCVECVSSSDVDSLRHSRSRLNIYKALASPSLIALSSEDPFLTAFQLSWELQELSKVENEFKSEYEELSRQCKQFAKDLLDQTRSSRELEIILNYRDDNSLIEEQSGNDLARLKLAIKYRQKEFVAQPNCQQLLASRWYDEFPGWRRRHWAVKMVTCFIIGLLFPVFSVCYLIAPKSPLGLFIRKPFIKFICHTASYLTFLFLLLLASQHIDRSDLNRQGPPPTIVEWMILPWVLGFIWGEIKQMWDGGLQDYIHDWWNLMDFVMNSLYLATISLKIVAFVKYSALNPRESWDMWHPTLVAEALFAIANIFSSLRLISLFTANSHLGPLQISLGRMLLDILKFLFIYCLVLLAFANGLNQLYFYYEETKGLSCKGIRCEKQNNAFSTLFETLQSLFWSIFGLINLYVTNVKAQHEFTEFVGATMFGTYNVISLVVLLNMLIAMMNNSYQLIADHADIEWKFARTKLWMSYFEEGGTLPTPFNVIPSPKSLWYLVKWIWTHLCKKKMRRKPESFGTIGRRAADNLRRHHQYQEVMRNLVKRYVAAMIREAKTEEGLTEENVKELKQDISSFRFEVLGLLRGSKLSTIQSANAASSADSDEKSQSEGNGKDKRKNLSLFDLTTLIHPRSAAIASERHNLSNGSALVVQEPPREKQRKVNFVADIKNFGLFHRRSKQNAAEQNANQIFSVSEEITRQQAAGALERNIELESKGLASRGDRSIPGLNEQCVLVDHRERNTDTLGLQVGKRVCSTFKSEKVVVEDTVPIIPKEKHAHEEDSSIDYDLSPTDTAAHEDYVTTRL

[23] = molecular target: DNA dC->dU-editing enzyme APOBEC-3G (Homo sapiens, UniProt Q9HC16); test: inhibition of APOBEC3G ssDNA deamination – biochemical, fluorescence, single-stranded DNA substrate, SAR follow-up (AID 602136); type: functional; conditions: read-out: IC50_Mean
Sequence of DNA dC->dU-editing enzyme APOBEC-3G (Q9HC16 whole entry): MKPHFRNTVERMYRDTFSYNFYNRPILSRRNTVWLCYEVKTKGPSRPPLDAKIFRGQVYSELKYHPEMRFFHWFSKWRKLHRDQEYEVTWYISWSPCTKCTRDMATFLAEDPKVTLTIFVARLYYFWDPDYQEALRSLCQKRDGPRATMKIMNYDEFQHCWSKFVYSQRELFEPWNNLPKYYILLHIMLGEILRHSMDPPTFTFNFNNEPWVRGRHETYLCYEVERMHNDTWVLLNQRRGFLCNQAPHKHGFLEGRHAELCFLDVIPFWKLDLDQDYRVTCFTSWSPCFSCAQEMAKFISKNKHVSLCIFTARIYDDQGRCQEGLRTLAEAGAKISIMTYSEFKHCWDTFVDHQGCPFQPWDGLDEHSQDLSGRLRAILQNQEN

[24] = molecular target: T6, Short transient receptor potential channel 4; test: block of DAMGO-driven TRPC4 calcium entry – cell-based, HEK293 TRPC4/mu-opioid, Fluo-4 calcium, dose response (AID 434942); type: functional;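 further: potency of inhibitors blocking the TRPC4 calcium response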

Sequence of Melanin-concentrating hormone receptor 1 (Q99705 whole entry): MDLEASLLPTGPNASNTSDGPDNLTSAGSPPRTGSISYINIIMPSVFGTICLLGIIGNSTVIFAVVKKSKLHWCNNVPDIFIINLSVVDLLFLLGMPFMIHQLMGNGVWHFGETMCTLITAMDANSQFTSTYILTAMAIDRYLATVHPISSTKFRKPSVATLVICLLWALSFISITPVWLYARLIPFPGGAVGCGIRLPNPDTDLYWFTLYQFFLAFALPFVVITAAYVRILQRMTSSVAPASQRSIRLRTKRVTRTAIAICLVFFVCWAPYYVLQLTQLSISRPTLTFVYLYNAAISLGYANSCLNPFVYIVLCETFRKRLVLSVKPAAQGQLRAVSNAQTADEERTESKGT

COc1cccc(Oc2c(Cl)cnn(C3c4ccccc4-c4ccccc43)c2=O)c1
IC50 [1]: > 20 µM (inactive)
IC50 [2]: 9.69 µM (active)

Cc1cccn2c(CN(C)C3CCCc4ccccc43)c(C(=O)N3CCOCC3)nc12 (stereo unspecified)
AC50 [3]: 19.5 µM (active)

O=C(Nc1ccc(Br)cn1)c1ccc(Br)s1
IC50 [4]: > 100 µM (inactive)
IC50 [5]: 20.4 µM (active)
IC50 [6]: > 100 µM (inactive)
IC50 [7]: 6.53 µM (active)

O=C(CSc1nnc(COc2ccc(Cl)cc2)n1Cc1ccco1)c1ccccc1F
IC50 [8]: 55.7 µM (inactive)
IC50 [9]: 2.36 µM (active)

N#Cc1c([N+](=O)[O-])cc([N+](=O)[O-])cc1S(=O)(=O)Cc1ccccc1
IC50 [10]: 12.1 µM (inactive)
IC50 [11]: 1.6 µM (active)
AC50 [12]: 3.59 µM (active)
IC50 [13]: > 100 µM (active)
AC50 [14]: 1.61 µM (active)
CC50 [15]: > 40 µM (active)

O=[N+]([O-])c1ccc(N2N=C(c3ccccc3)CC2c2ccccc2O)cc1 (stereo unspecified)
IC50 [10]: 4.58 µM (active)
IC50 [11]: 28.5 µM (inactive)
EC50 [16]: 1.45 µM (active)
AC50 [17]: 3.31 µM (active)
AC50 [14]: 2.65 µM (active)
EC50 [18]: 3.46 µM (active)
EC50 [19]: > 60 µM (not active)
EC50 [20]: 2.31 µM (active)

COc1ccc2c(Cl)c(-c3nnc4n3CCCCC4)sc2c1
IC50 [21]: > 99 µM (inactive)
EC50 [22]: 1.88 µM (active)
IC50 [23]: > 99 µM (inactive)

O=C(O)c1cc(NN=C2c3ccccc3-c3ccccc32)ccc1Cl
IC50 [8]: 9.27 µM (active)
IC50 [9]: 9.33 µM (active)
EC50 [24]: 2.99 µM (active)

Cc1nc(Cc2nnc(SCC(=O)c3cc(C)n(Cc4ccccc4)c3C)o2)cs1
IC50 [21]: > 99 µM (inactive)
IC50 [23]: > 99 µM (inactive)
